Measured values as given in patent US20230358751A1, “METHODS FOR THE DETECTION AND TREATMENT OF PROSTATE CANCER” (Board of Regents, The University of Texas System, priority 2020, published 2023).
Read-outs that look alike come from different tables or passages of the source.

Experiments:
[1] = system: PC-3M prostate cancer cells
Procedure: (§1) Horizontal axis=log(M); vertical axis=% viability relative to control. […] (i) vehicle (ii) 128 μM Eliglustat (iii) 64 μM PDMP (iv) 64 μM PPMP. Statistical significance was determined by 2-sided student t-test comparing the aggregate intensities of individual lipid species corresponding to the respective lipid domain.
(§2) To test this hypothesis, the efficacy of PDMP, PPMP and eliglustat three different inhibitors of glucosylceramide synthase (also known as UGCG; UDP-glucose:ceramide glucosyltransferase), a rate-limiting enzyme in glycosphingolipid metabolism, for reducing viability of RM-9 and PC-3M prostate cancer cells in vitro was then evaluated.

[2] = system: RM-9 prostate cancer cells
Procedure: as §1, §2

[3] = system: RM-9 prostate cancer cells; assay: Lipidome alterations after short-term pharmacological inhibition of UGCG in RM-9 cells; format: cell-based, mouse; conditions: 6 hr, 128 μM Eliglustat, 64 μM PDMP, 64 μM PPMP
Description: (§3) FIGS. 16A, 16B, and 16C show (16A) the induction of autophagy/mitophagy by exposure of PC-3M prostate cancer cells to Eliglustat. (i) cytotoxicity (ii) apoptosis at 4 hrs (iii) apoptosis at 24 hrs. N=3 biologically independent replicates per experimental condition. Values represent log(relative fluorescence units)±StDev. Also shown are volcano plots illustrating differences in annotated lipid species stratified by lipid domains in (16B) PC-3M and (16C) RM-9 prostate cancer cells following 6 hr challenge with 128 μM Eliglustat. (i) acylcarnitines (ii) cardiolipins (iii) diacylglycerols (iv) ether lysophospholipids (v) ether phospholipids (vi) lysophospholipids (vii) phospholipids (viii) cholesterol esters (ix) triacylglycerols (x) sphingomyelins. N=3 biologically independent replicates per experimental condition.
(§4) Sample Extraction Following transfections, cell lysates were washed 2× with pre-chilled 0.9% NaCl followed by addition of 2.5 mL of pre-chilled 3:1 isopropanol:ultrapure water. Cells were scraped using a 25 cm Cell Scraper (Sarstedt) in extraction solvent and transferred to a 15 mL conical tube (Eppendorf). Samples were briefly vortexed followed by centrifugation at 4° C. for 10 min at 2,000×g. Thereafter, 1.2 mL of metabolite extracts were transferred to 1.5 mL Eppendorf tubes and stored in −20° C. until metabolomic analysis.
(§5) Complex Lipids Pre-aliquoted EDTA plasma samples (10 μL) were extracted with 30 μL of LCMS grade 2-propanol (ThermoFisher) in a 96-well microplate (Eppendorf). Plates were heat sealed, vortexed for 5 min at 750 rpm, and centrifuged at 2000×g for 10 minutes at room temperature. The supernatant (10 μL) was carefully transferred to a 96-well plate, leaving behind the precipitated protein. The supernatant was further diluted with 90 μL of 1:3:2 100 mM ammonium formate, pH 3 (ThermoFisher): acetonitrile: 2-propanol and transferred to a 384-well microplate (Eppendorf) for lipids analysis using LCMS. […]

[4] = system: PC-3M prostate cancer cells; assay: Lipidome alterations after short-term pharmacological inhibition of UGCG in PC-3M cells; format: cell-based, human; conditions: 6 hr, 128 μM Eliglustat, 64 μM PDMP, 64 μM PPMP
Description: as §3, §4, §5

[5] = system: PC-3M prostate cancer cells; assay: Cytotoxicity and apoptosis of PC-3M cells exposed to eliglustat; format: cell-based
Procedure: as §2

[6] = system: PC-3M cells; assay: Mitophagy markers and mitochondrial morphology in PC-3M cells treated with eliglustat; format: cell-based, human
Procedure: FIGS. 17A, 17B, 17C, and 17D show representative confocal microscopy images for PC-3M cells following 24 hr pre-transfection with (i) CellLight Mitochondria-RFP (leader sequence of E1 alpha pyruvate dehydrogenase) or (ii) CellLight Lysosome-GFP (lysosomal associated 1052 membrane protein 1) followed by acute (6 hr) treatment with either (17A) vehicle or (17C) Eliglustat (128 μM). (17B) and (17D) correspond to enlargements of features from (17A) and (17C), respectively. (iii) merged images.

[7] = system: PC-3M cells; assay: Viability (MTS assay) of PC-3M cells treated with eliglustat after CAV1 knockdown or Cav-1 blocking antibody; format: cell-based, human; conditions: 128 μM eliglustat
Procedure: (§6) FIGS. 18A and 18B show (18A) the viability (MTS assay) of PC-3M cells treated with 128 μM eliglustat after (left) knockdown of CAV1: or (right) following pre-treatment with Cav-1 monoclonal blocking antibody: (i) siCtrl (ii) siCAV1-1 (iii) siCAV1-2 (iv) IgG=vehicle (v) IgG+Eliglustat (vi) abCAV1+Vehicle (vii) abCAV1+Eliglustat. (18B) Viability (MTS assay) of LNCaP cells treated with 64 μM eliglustat following Cav-1 overexpression.

[8] = system: LNCaP cells; assay: Viability (MTS assay) of LNCaP cells treated with eliglustat following Cav-1 overexpression; format: cell-based, human; conditions: 64 μM eliglustat
Procedure: as §6

[9] = system: RM-9 tumors; assay: RM-9-luciferase subcutaneous tumor model in C57BL/6N mice; format: in vivo, mouse
Procedure: FIGS. 19A, 19B, 19C, and 19D show the efficacy of eliglustat in an in vivo mouse model. (19A) Relative fluorescence units±SEM of RM-9 tumors following daily intraperitoneal injection with either (i) saline (n=23) or (ii) eliglustat (60 mg/kg) (n=9). (19B) Tumor Volume±SEM following treatment with either saline (n=15) or eliglustat (60 mg/kg) (n=8). Statistical significance was determined by 2-sided Wilcoxon-rank sum test. (19C) Representative IVIS images following treatment. (19D) Relative abundance (area units±StDev) of glycosphinoglipids in RM-9 tumors following treatment.
FIGS. 20A, 20B, 20C, 20D, 20E, and 20F show quantitative analyses derived from immunohistochemistry staining for (20A) Cav-1, (20B) BrdU-TUNEL, (20C) PCNA, (20D) HMGB1 and (20E) LC3B in RM-9 tumors following treatment with either saline (n=6-8 mice) or eliglustat (n=7 mice). Vertical axes are (20A) Cav-1 staining score, (20B) apoptotic bodies/fd, (20C) % of PCNA labeling, (20D) % of cytoplasmic HMGB1, and (20E) LC-3B positive cells/fd. Statistical significance was determined by 2-sided Wilcoxon rank sum test. Also shown is (20F) volcano plot illustrating fold change in individual annotated lipid species stratified by lipid domain in plasma of RM-9 bearing C57BL/6N mice or control mice. (i) acylcarnitines (ii) ceramides (iii) cholesterol esters (iv) diacylglycerols (v) free fatty acids (vi) glycosphingolipids (vii) lysophospholipids (viii) oxylipins (ix) phospholipids (x) sphingomyelins (x) triacylglycerols.
Inhibition of tumor growth by eliglustat was next examined. RM-9 cells harbor driver oncogenic RAS and MYC genes which model RAS-MAPK pathway activation and MYC-driven transcriptional activities which are associated with aggressive primary prostate cancer. RM-9-luciferase cells were subcutaneously implanted into C57BL/6N mice. RM-9 tumor growth was suppressed by eliglustat (FIGS. 19A, 19B, and 19C). […] In addition, plasma Cav-1 levels tended to be elevated in RM-9 tumor-bearing mice compared to control mice.

[10] = immunohistochemistry, RM-9 tumors

CCCCCCCCCC(=O)NC(CN1CCOCC1)C(O)c1ccccc1 (stereo not shown) [PDMP, 1-phenyl-2-decanoylamino-3-morpholino-1-propanol]
cytotoxicity (viability relative to control) [1]: dose-dependent cytotoxicity
cytotoxicity (viability relative to control) [2]: dose-dependent cytotoxicity
alterations in the lipidome [3]: accumulation of intracellular ceramides, acylcarnitines, lysophospholipids and diacylglycerols and reductions in glycosphingolipids, phospholipids and triacylglycerols
alterations in the lipidome [4]: accumulation of intracellular ceramides, acylcarnitines, lysophospholipids and diacylglycerols and reductions in glycosphingolipids, phospholipids and triacylglycerols

CCCCCCCCCCCCCCCC(=O)N[C@H](CN1CCOCC1)[C@H](O)c1ccccc1 [PPMP, D-threo-1-phenyl-2-hexadecanoylamino-3-morpholino-1-propanol]
cytotoxicity (viability relative to control) [1]: dose-dependent cytotoxicity
cytotoxicity (viability relative to control) [2]: dose-dependent cytotoxicity
alterations in the lipidome [3]: accumulation of intracellular ceramides, acylcarnitines, lysophospholipids and diacylglycerols and reductions in glycosphingolipids, phospholipids and triacylglycerols
alterations in the lipidome [4]: accumulation of intracellular ceramides, acylcarnitines, lysophospholipids and diacylglycerols and reductions in glycosphingolipids, phospholipids and triacylglycerols

CCCCCCCC(=O)N[C@H](CN1CCCC1)[C@H](O)c1ccc2c(c1)OCCO2 [eliglustat]
cytotoxicity (viability relative to control) ([1]; PC-3M cells, 48 hour treatment): dose-dependent cytotoxicity
cytotoxicity (viability relative to control) ([2]; RM-9 cells, 48 hour treatment): dose-dependent cytotoxicity
alterations in the lipidome [3]: accumulation of intracellular ceramides, acylcarnitines, lysophospholipids and diacylglycerols and reductions in glycosphingolipids, phospholipids and triacylglycerols
alterations in the lipidome [4]: accumulation of intracellular ceramides, acylcarnitines, lysophospholipids and diacylglycerols and reductions in glycosphingolipids, phospholipids and triacylglycerols
mechanism of acute cytotoxic effects (cytotoxicity, apoptosis at 4 hrs and 24 hrs) [5]: non-apoptotic mechanism
protein expression of mitophagy-associated marker LC3B-II [6]: increased
protein expression of Parkin and PINK1 ([6]; acute (6 hr) treatment): increased
mitochondrial morphology ([6]; acute (6 hr) treatment, 128 μM): loss of the branched, fused-like-mitochondrial architecture and accumulation of punctate mitochondria co-localized with the lysosome
sensitivity to eliglustat (viability, MTS) after knockdown of CAV1 [7]: further sensitized
anti-cancer effect (viability, MTS) following Cav-1 overexpression [8]: reduced the anti-cancer effects
RM-9 tumor growth ([9]; C57BL/6N mice, 60 mg/kg daily intraperitoneal injection): suppressed
glycosphingolipids in RM-9 tumor tissue ([9]; C57BL/6N mice, 60 mg/kg, metabolomics of tumor tissue): reductions in glycosphingolipids
BrdU-TUNEL staining in tumor tissue [9, 10]: statistically significantly increased
Cav-1 staining in tumor tissue [9, 10]: statistically significantly reduced
HMGB1 staining in tumor tissue [9, 10]: statistically significantly increased
LC3B staining in tumor tissue [9, 10]: statistically significantly increased
PCNA staining in tumor tissue [9, 10]: statistically significantly reduced
